# Assays:
# Type in all cases: functional
# MOLT-4 = experiment: Growth inhibition of human MOLT4 cells assessed as cell growth incubated for 48 hrs by sulforhodamine B assay; design: concentration or dose not given beside the values
# RPMI-8226 = experiment: Growth inhibition of human RPMI8226 cells assessed as cell growth incubated for 48 hrs by sulforhodamine B assay; design: concentration or dose not given beside the values
# K562 = experiment: Growth inhibition of human K562 cells assessed as cell growth incubated for 48 hrs by sulforhodamine B assay; design: concentration or dose not given beside the values
# CCRF-CEM = experiment: Growth inhibition of human CCRF-CEM cells assessed as cell growth incubated for 48 hrs by sulforhodamine B assay; design: concentration or dose not given beside the values
# HL-60(TB) = experiment: Growth inhibition of human HL-60(TB) cells assessed as cell growth incubated for 48 hrs by sulforhodamine B assay; design: concentration or dose not given beside the values
# SR = experiment: Growth inhibition of human SR cells assessed as cell growth incubated for 48 hrs by sulforhodamine B assay; design: concentration or dose not given beside the values
# A549 = experiment: Growth inhibition of human A549/ATCC cells assessed as cell growth incubated for 48 hrs by sulforhodamine B assay; design: concentration or dose not given beside the values
# HOP-62 = experiment: Growth inhibition of human HOP62 cells assessed as cell growth incubated for 48 hrs by sulforhodamine B assay; design: concentration or dose not given beside the values
# HOP-92 = experiment: Growth inhibition of human HOP92 cells assessed as cell growth incubated for 48 hrs by sulforhodamine B assay; design: concentration or dose not given beside the values
# NCI-H226 = experiment: Growth inhibition of human NCI-H226 cells assessed as cell growth incubated for 48 hrs by sulforhodamine B assay; design: concentration or dose not given beside the values
# NCI-H23 = experiment: Growth inhibition of human NCI-H23 cells assessed as cell growth incubated for 48 hrs by sulforhodamine B assay; design: concentration or dose not given beside the values
# NCI-H322M = experiment: Growth inhibition of human NCI-H322M cells assessed as cell growth incubated for 48 hrs by sulforhodamine B assay; design: scale not given: the % may be the effect or the level left
# NCI-H460 = experiment: Growth inhibition of human NCI-H460 cells assessed as cell growth incubated for 48 hrs by sulforhodamine B assay; design: concentration or dose not given beside the values
# NCI-H522 = experiment: Growth inhibition of human NCI-H522 cells assessed as cell growth incubated for 48 hrs by sulforhodamine B assay; design: concentration or dose not given beside the values
# COLO 205 = experiment: Growth inhibition of human COLO205 cells assessed as cell growth incubated for 48 hrs by sulforhodamine B assay; design: concentration or dose not given beside the values
# HCC 2998 = experiment: Growth inhibition of human HCC2998 cells assessed as cell growth incubated for 48 hrs by sulforhodamine B assay; design: concentration or dose not given beside the values
# HCT-116 = experiment: Growth inhibition of human HCT116 cells assessed as cell growth incubated for 48 hrs by sulforhodamine B assay; design: concentration or dose not given beside the values
# HT-29 = experiment: Growth inhibition of human HT-29 cells assessed as cell growth incubated for 48 hrs by sulforhodamine B assay; design: concentration or dose not given beside the values
# KM12 = experiment: Growth inhibition of human KM12 cells assessed as cell growth incubated for 48 hrs by sulforhodamine B assay; design: concentration or dose not given beside the values
# SW-620 = experiment: Growth inhibition of human SW620 cells assessed as cell growth incubated for 48 hrs by sulforhodamine B assay; design: concentration or dose not given beside the values
# SF-268 = experiment: Growth inhibition of human SF268 cells assessed as cell growth incubated for 48 hrs by sulforhodamine B assay; design: concentration or dose not given beside the values
# SF-295 = experiment: Growth inhibition of human SF295 cells assessed as cell growth incubated for 48 hrs by sulforhodamine B assay; design: concentration or dose not given beside the values
# SNB-19 = experiment: Growth inhibition of human SNB19 cells assessed as cell growth incubated for 48 hrs by sulforhodamine B assay; design: concentration or dose not given beside the values
# SNB-75 = experiment: Growth inhibition of human SNB75 cells assessed as cell growth incubated for 48 hrs by sulforhodamine B assay; design: concentration or dose not given beside the values
# U-251 = experiment: Growth inhibition of human U251 cells assessed as cell growth incubated for 48 hrs by sulforhodamine B assay; design: concentration or dose not given beside the values
# LOX IMVI = experiment: Growth inhibition of human LOXIMVI cells assessed as cell growth incubated for 48 hrs by sulforhodamine B assay; design: concentration or dose not given beside the values
# Malme-3M = experiment: Growth inhibition of human MALME-3M cells assessed as cell growth incubated for 48 hrs by sulforhodamine B assay; design: scale not given: the % may be the effect or the level left
# M14 = experiment: Growth inhibition of human M14 cells assessed as cell growth incubated for 48 hrs by sulforhodamine B assay; design: concentration or dose not given beside the values
# MDA-MB-435 = experiment: Growth inhibition of human MDA-MB-435 cells assessed as cell growth incubated for 48 hrs by sulforhodamine B assay; design: concentration or dose not given beside the values
# SK-MEL-2 = experiment: Growth inhibition of human SK-MEL-2 cells assessed as cell growth incubated for 48 hrs by sulforhodamine B assay; design: concentration or dose not given beside the values
# SK-MEL-28 = experiment: Growth inhibition of human SK-MEL-28 cells assessed as cell growth incubated for 48 hrs by sulforhodamine B assay; design: concentration or dose not given beside the values
# SK-MEL-5 = experiment: Growth inhibition of human SK-MEL-5 cells assessed as cell growth incubated for 48 hrs by sulforhodamine B assay; design: concentration or dose not given beside the values
# UACC-257 = experiment: Growth inhibition of human UACC257 cells assessed as cell growth incubated for 48 hrs by sulforhodamine B assay; design: concentration or dose not given beside the values
# UACC-62 = experiment: Growth inhibition of human UACC62 cells assessed as cell growth incubated for 48 hrs by sulforhodamine B assay; design: concentration or dose not given beside the values
# IGROV-1 = experiment: Growth inhibition of human IGROV1 cells assessed as cell growth incubated for 48 hrs by sulforhodamine B assay; design: scale not given: the % may be the effect or the level left
# OVCAR-3 = experiment: Growth inhibition of human OVCAR3 cells assessed as cell growth incubated for 48 hrs by sulforhodamine B assay; design: concentration or dose not given beside the values
# OVCAR-4 = experiment: Growth inhibition of human OVCAR4 cells assessed as cell growth incubated for 48 hrs by sulforhodamine B assay; design: concentration or dose not given beside the values
# OVCAR-8 = experiment: Growth inhibition of human OVCAR8 cells assessed as cell growth incubated for 48 hrs by sulforhodamine B assay; design: concentration or dose not given beside the values
# NCI/ADR-RES = experiment: Growth inhibition of human NCI/ADR-RES cells assessed as cell growth incubated for 48 hrs by sulforhodamine B assay; design: concentration or dose not given beside the values
# SK-OV-3 = experiment: Growth inhibition of human SKOV3 cells assessed as cell growth incubated for 48 hrs by sulforhodamine B assay; design: concentration or dose not given beside the values
# 786-0 = experiment: Growth inhibition of human 786-0 cells assessed as cell growth incubated for 48 hrs by sulforhodamine B assay; design: concentration or dose not given beside the values
# A498 = experiment: Growth inhibition of human A498 cells assessed as cell growth incubated for 48 hrs by sulforhodamine B assay; design: concentration or dose not given beside the values
# CAKI-1 = experiment: Growth inhibition of human Caki1 cells assessed as cell growth incubated for 48 hrs by sulforhodamine B assay; design: concentration or dose not given beside the values
# RXF 393 = experiment: Growth inhibition of human RXF393 cells assessed as cell growth incubated for 48 hrs by sulforhodamine B assay; design: concentration or dose not given beside the values
# SN12C = experiment: Growth inhibition of human SN12C cells assessed as cell growth incubated for 48 hrs by sulforhodamine B assay; design: concentration or dose not given beside the values
# TK-10 = experiment: Growth inhibition of human TK10 cells assessed as cell growth incubated for 48 hrs by sulforhodamine B assay; design: concentration or dose not given beside the values
# UO-31 = experiment: Growth inhibition of human UO31 cells assessed as cell growth incubated for 48 hrs by sulforhodamine B assay; design: concentration or dose not given beside the values
# PC-3 = experiment: Growth inhibition of human PC3 cells assessed as cell growth incubated for 48 hrs by sulforhodamine B assay; design: concentration or dose not given beside the values
# DU-145 = experiment: Growth inhibition of human DU145 cells assessed as cell growth incubated for 48 hrs by sulforhodamine B assay; design: concentration or dose not given beside the values
# MCF7 = experiment: Growth inhibition of human MCF7 cells assessed as cell growth incubated for 48 hrs by sulforhodamine B assay; design: concentration or dose not given beside the values
# MDA-MB-231 = experiment: Growth inhibition of human MDA-MB-231 cells assessed as cell growth incubated for 48 hrs by sulforhodamine B assay; design: concentration or dose not given beside the values
# Hs-578T = experiment: Growth inhibition of human Hs 578T cells assessed as cell growth incubated for 48 hrs by sulforhodamine B assay; design: concentration or dose not given beside the values
# BT-549 = experiment: Growth inhibition of human BT549 cells assessed as cell growth incubated for 48 hrs by sulforhodamine B assay; design: concentration or dose not given beside the values
# T47D = experiment: Growth inhibition of human T47D cells assessed as cell growth incubated for 48 hrs by sulforhodamine B assay; design: concentration or dose not given beside the values
# MDA-MB-468 = experiment: Growth inhibition of human MDA-MB-468 cells assessed as cell growth incubated for 48 hrs by sulforhodamine B assay; design: concentration or dose not given beside the values
structure (smiles),measurement,setting,value
CC(C)(C)OC(=O)NCC1CN(C(=O)CCc2ccc3c(=O)c4sc5c(=O)c6ccccc6c(=O)c5c4c(=O)c3c2)C1,Activity,MOLT-4,-47.44%
same,Activity,RPMI-8226,-36.74%
same,Activity,K562,-13.04%
same,Activity,CCRF-CEM,-45.34%
same,Activity,HL-60(TB),-44.47%
same,Activity,SR,-5.83%
same,Activity,A549,-66.1%
same,Activity,HOP-62,-74.88%
same,Activity,HOP-92,-14.16%
same,Activity,NCI-H226,-51.46%
same,Activity,NCI-H23,-39.91%
same,Activity,NCI-H322M,-94.65%
same,Activity,NCI-H460,-45.51%
same,Activity,NCI-H522,-42.91%
same,Activity,COLO 205,-97.62%
same,Activity,HCC 2998,-90.99%
same,Activity,HCT-116,-89.29%
same,Activity,HT-29,-57.09%
same,Activity,KM12,-27.78%
same,Activity,SW-620,-23.01%
same,Activity,SF-268,-39.06%
same,Activity,SF-295,-95.8%
same,Activity,SNB-19,-4.23%
same,Activity,SNB-75,-83.64%
same,Activity,U-251,-70.04%
same,Activity,LOX IMVI,-69.24%
same,Activity,Malme-3M,-88.84%
same,Activity,M14,-97.99%
same,Activity,MDA-MB-435,-97.59%
same,Activity,SK-MEL-2,-50.15%
same,Activity,SK-MEL-28,-21.85%
same,Activity,SK-MEL-5,-99.11%
same,Activity,UACC-257,-95.5%
same,Activity,UACC-62,-68.32%
same,Activity,IGROV-1,-62.41%
same,Activity,OVCAR-3,-33.51%
same,Activity,OVCAR-4,-90.58%
same,Activity,OVCAR-8,-55.88%
same,Activity,NCI/ADR-RES,-12.16%
same,Activity,SK-OV-3,-34.85%
same,Activity,786-0,-48.69%
same,Activity,A498,35.61%
same,Activity,CAKI-1,0.12%
same,Activity,RXF 393,-48.97%
same,Activity,SN12C,-79.71%
same,Activity,TK-10,-8.18%
same,Activity,UO-31,-81.64%
same,Activity,PC-3,4.68%
same,Activity,DU-145,-95.53%
same,Activity,MCF7,-63.33%
same,Activity,MDA-MB-231,-12.92%
same,Activity,Hs-578T,-20.36%
same,Activity,BT-549,-94.11%
same,Activity,T47D,-33.26%
same,Activity,MDA-MB-468,-50.83%

# Source: ChEMBL document CHEMBL4420075, “Seriniquinones, melanoma-specific anticancer agents” (2016)
